Where “and” joins values, the source holds several entries; their conditions need not be identical. Equal entries are not always repeated.
Assays:
Assay in all cases: radiometric filter-binding kinase assay, Kinase HotSpot
Settings in all cases: compound 0.5 µM; ATP 10 µM
ACVR1 (human) = ACVR1 (human) (UniProt Q04771)
AKT3 (human) = AKT3 (human) (UniProt Q9Y243)
CDK3 CCNE1 (human) = CDK3 CCNE1 (human) (UniProt Q00526+P24864)
CHUK (human) = CHUK (human) (UniProt O15111)
CLK1 (human) = CLK1 (human) (UniProt P49759)
CLK2 (human) = CLK2 (human) (UniProt P49760)
CLK3 (human) = CLK3 (human) (UniProt P49761)
CSNK1G1 (human) = CSNK1G1 (human) (UniProt Q9HCP0)
DYRK2 (human) = DYRK2 (human) (UniProt Q92630)
EPHB1 (human) = EPHB1 (human) (UniProt P54762)
EPHB4 (human) = EPHB4 (human) (UniProt P54760)
ERBB2 (human) = ERBB2 (human) (UniProt P04626)
HCK (human) = HCK (human) (UniProt P08631)
INSRR (human) = INSRR (human) (UniProt P14616)
INSRR (human), sequence (P14616 whole entry, looked up): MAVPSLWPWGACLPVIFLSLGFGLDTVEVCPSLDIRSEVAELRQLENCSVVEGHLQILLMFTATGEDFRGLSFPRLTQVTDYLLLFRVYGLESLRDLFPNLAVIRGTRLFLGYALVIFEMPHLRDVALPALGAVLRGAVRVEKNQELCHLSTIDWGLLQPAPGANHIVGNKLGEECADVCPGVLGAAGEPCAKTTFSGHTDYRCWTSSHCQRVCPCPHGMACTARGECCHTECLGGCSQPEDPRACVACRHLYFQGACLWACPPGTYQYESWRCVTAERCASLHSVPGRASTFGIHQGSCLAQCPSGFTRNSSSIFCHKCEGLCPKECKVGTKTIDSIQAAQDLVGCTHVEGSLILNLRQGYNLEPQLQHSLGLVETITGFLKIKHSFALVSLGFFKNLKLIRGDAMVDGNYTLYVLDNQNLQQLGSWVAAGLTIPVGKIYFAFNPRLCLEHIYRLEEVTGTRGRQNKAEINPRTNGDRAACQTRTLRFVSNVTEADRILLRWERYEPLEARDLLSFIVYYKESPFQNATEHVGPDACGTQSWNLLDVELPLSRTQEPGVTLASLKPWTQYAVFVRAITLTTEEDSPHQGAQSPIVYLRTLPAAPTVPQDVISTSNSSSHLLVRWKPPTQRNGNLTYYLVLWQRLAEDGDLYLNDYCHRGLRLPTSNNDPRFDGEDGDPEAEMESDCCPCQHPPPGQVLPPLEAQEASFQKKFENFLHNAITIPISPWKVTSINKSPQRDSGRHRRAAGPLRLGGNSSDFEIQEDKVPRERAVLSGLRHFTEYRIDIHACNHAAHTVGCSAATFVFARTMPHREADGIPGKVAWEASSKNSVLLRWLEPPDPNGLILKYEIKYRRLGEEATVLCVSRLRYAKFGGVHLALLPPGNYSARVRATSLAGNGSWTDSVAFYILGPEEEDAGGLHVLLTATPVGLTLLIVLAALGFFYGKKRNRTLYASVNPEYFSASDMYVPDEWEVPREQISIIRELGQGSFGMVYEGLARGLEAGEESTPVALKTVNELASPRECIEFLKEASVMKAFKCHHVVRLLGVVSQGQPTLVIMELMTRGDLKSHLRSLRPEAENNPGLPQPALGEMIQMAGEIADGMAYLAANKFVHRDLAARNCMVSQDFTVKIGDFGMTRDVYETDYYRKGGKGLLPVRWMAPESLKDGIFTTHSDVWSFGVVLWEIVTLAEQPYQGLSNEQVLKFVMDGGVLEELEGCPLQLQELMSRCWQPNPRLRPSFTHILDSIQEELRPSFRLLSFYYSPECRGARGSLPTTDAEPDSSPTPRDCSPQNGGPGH

[1] = molecular target: JAK1 JH1 catalytic (human) (UniProt P23458)
JAK2 JH1 JH2 (human) = JAK2 JH1 JH2 (human) (UniProt O60674)
LIMK1 (human) = LIMK1 (human) (UniProt P53667)
LIMK1 (human), sequence (P53667 whole entry, looked up): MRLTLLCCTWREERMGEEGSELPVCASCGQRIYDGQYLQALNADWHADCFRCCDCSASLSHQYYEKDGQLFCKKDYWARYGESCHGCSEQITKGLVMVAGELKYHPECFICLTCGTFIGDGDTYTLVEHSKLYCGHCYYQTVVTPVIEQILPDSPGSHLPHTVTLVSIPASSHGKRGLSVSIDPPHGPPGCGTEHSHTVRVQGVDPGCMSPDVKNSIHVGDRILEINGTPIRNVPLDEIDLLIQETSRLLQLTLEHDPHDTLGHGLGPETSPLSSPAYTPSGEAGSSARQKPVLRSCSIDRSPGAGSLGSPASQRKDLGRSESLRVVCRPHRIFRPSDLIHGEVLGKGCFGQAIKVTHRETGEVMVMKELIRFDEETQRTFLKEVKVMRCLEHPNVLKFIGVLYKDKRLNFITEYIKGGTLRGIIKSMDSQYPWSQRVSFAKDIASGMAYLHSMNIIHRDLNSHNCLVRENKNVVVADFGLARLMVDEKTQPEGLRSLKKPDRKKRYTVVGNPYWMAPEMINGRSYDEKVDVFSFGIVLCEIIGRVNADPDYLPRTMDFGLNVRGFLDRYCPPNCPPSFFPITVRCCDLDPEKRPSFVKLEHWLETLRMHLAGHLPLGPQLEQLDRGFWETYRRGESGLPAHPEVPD

LYN (human) = LYN (human) (UniProt P07948)
MAP3K10 (human) = MAP3K10 (human) (UniProt Q02779)
MAP3K5 (human) = MAP3K5 (human) (UniProt Q99683)
MAP4K5 (human) = MAP4K5 (human) (UniProt Q9Y4K4)
MAPK8 (human) = MAPK8 (human) (UniProt P45983)
MAPK8 (human), sequence (P45983 whole entry, looked up): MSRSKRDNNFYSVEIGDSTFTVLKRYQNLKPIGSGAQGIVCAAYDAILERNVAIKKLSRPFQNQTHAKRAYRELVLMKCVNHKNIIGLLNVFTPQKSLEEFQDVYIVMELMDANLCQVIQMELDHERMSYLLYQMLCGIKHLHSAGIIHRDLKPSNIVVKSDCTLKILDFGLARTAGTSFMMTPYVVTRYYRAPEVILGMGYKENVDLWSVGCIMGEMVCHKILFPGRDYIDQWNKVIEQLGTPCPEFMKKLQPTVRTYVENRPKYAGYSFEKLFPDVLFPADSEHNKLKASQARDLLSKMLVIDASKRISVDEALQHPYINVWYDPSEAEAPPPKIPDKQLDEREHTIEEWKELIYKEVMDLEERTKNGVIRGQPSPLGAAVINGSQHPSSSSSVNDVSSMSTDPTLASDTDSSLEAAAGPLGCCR

MARK3 (human) = MARK3 (human) (UniProt P27448)
MARK3 (human), sequence (P27448 whole entry, looked up): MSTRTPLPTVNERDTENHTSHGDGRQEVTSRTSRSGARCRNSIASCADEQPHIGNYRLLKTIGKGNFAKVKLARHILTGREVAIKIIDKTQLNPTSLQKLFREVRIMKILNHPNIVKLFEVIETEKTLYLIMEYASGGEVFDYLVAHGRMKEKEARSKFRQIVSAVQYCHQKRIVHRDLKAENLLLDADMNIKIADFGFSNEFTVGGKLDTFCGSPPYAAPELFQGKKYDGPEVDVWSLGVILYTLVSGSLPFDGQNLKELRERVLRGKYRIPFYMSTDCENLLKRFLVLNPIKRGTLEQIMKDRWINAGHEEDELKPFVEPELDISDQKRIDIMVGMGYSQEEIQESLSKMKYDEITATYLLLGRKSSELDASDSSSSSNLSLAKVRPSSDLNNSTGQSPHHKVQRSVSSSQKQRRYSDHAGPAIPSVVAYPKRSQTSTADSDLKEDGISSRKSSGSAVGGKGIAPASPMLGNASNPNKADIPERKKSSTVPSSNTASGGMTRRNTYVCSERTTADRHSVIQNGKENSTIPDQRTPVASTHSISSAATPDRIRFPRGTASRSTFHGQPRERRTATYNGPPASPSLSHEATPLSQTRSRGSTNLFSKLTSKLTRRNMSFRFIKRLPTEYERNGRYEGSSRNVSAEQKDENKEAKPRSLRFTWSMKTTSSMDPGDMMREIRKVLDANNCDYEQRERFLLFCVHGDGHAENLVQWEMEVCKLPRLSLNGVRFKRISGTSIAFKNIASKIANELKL

MLTK (human) = MLTK (human) (UniProt Q9NYL2)
NEK2 (human) = NEK2 (human) (UniProt P51955)
NEK6 (human) = NEK6 (human) (UniProt Q9HC98)
NTRK3 (human) = NTRK3 (human) (UniProt Q16288)
PAK3 (human) = PAK3 (human) (UniProt O75914)
PAK3 (human), sequence (O75914 whole entry, looked up): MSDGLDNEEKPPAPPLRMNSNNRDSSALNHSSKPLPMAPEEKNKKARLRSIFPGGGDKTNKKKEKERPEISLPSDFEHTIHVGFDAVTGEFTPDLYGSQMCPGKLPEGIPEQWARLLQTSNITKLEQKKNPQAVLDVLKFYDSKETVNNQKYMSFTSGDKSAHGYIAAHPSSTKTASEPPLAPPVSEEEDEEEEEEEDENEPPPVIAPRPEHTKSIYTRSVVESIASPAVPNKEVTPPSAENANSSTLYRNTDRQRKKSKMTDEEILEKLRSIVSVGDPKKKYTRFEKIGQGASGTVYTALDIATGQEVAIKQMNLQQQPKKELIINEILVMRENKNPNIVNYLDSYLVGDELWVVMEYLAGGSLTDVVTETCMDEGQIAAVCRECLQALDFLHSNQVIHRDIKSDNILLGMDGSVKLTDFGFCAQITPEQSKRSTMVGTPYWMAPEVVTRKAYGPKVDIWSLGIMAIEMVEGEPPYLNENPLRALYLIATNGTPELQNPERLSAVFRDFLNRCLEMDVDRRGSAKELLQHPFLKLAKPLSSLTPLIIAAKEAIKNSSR

PAK4 (human) = PAK4 (human) (UniProt O96013)
PHKG1 (human) = PHKG1 (human) (UniProt Q16816)
PLK3 (human) = PLK3 (human) (UniProt Q9H4B4)
PRKG1 (human) = PRKG1 (human) (UniProt Q13976)
PTK2B (human) = PTK2B (human) (UniProt Q14289)
RET (human) = RET (human) (UniProt P07949)
RPS6KA5 KD2 (human) = RPS6KA5 KD2 (human) (UniProt O75582)
RPS6KA6 KD1 KD2 (human) = RPS6KA6 KD1 KD2 (human) (UniProt Q9UK32)
RPS6KA6 KD1 KD2 (human), sequence (Q9UK32 whole entry, looked up): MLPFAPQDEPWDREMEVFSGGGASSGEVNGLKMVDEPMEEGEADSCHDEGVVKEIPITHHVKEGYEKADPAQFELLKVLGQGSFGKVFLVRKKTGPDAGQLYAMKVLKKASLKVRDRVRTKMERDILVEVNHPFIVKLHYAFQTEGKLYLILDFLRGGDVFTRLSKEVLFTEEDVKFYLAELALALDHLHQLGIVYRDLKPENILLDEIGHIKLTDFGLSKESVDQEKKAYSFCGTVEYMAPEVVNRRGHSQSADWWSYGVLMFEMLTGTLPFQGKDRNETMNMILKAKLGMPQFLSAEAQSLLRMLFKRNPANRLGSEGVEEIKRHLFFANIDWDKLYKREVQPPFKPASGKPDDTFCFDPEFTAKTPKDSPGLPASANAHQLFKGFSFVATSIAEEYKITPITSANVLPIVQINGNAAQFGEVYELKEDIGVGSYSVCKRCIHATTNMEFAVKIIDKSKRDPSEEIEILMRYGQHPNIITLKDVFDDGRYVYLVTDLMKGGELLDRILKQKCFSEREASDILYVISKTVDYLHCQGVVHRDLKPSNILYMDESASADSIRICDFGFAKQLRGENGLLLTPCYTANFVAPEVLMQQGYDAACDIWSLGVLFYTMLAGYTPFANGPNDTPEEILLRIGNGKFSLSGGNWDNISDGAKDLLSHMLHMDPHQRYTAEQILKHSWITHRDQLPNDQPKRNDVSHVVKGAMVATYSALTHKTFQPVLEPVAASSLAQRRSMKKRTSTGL

TAOK1 (human) = TAOK1 (human) (UniProt Q7L7X3)
TEC (human) = TEC (human) (UniProt P42680)
TGFBR1 (human) = TGFBR1 (human) (UniProt P36897)
ULK1 (human) = ULK1 (human) (UniProt O75385)
ULK2 (human) = ULK2 (human) (UniProt Q8IYT8)
VRK1 (human) = VRK1 (human) (UniProt Q99986)
VRK1 (human), sequence (Q99986 whole entry, looked up): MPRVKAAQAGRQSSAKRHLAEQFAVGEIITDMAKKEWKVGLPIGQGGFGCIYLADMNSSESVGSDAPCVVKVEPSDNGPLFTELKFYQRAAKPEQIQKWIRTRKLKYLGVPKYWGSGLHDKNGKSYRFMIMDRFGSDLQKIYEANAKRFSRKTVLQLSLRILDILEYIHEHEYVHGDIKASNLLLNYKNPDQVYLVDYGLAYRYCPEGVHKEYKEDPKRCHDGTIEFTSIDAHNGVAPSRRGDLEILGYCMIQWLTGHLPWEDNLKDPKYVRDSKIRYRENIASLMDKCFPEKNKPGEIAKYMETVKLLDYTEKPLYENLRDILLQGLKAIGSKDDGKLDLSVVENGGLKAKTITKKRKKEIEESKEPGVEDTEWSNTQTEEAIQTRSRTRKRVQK

In the case of COc1cc2nccc(Oc3ccc(NC(=S)NC(=O)c4ccccc4C)cc3)c2cc1OC, the residual activity (ACVR1 (human)) was 93.5%, the residual activity (AKT3 (human)) was 95.9% and the residual activity (CDK3 CCNE1 (human)) was 86.6%. For the same compound, the residual activity (CHUK (human)) was 98.3%, the residual activity (CLK1 (human)) was 89.9% and the residual activity (CLK2 (human)) was 107%. The residual activity (CLK3 (human)) was 93.2%, the residual activity (CSNK1G1 (human)) was 80.1% and the residual activity (DYRK2 (human)) was 87.5%. It also gave a residual activity (EPHB1 (human)) of 98.5%, a residual activity (EPHB4 (human)) of 103% and a residual activity (ERBB2 (human)) of 102%. It also gave a residual activity (HCK (human)) of 4.93%, a residual activity (INSRR (human)) of 98.2% and a residual activity [1] of 96.7%. The residual activity (JAK2 JH1 JH2 (human)) was 97.7%, the residual activity (LIMK1 (human)) was 82.7% and the residual activity (LYN (human)) was 16.9% and 31.8%. It also gave a residual activity (MAP3K10 (human)) of 91%, a residual activity (MAP3K5 (human)) of 106% and a residual activity (MAP4K5 (human)) of 11.1%. It also gave a residual activity (MAPK8 (human)) of 81.3%, a residual activity (MARK3 (human)) of 79.2% and a residual activity (MLTK (human)) of 71.7%. The residual activity (NEK2 (human)) was 89%, the residual activity (NEK6 (human)) was 92.4% and the residual activity (NTRK3 (human)) was 86.1%. For the same compound, the residual activity (PAK3 (human)) was 99.7%, the residual activity (PAK4 (human)) was 100% and the residual activity (PHKG1 (human)) was 89.2%. For the same compound, the residual activity (PLK3 (human)) was 92.1%, the residual activity (PRKG1 (human)) was 101% and 91.6% and the residual activity (PTK2B (human)) was 93.4%. For the same compound, the residual activity (RET (human)) was 86.7%, the residual activity (RPS6KA5 KD2 (human)) was 95.3% and the residual activity (RPS6KA6 KD1 KD2 (human)) was 93%. It also gave a residual activity (TAOK1 (human)) of 71.3%, a residual activity (TEC (human)) of 90.8% and a residual activity (TGFBR1 (human)) of 98%. The residual activity (ULK1 (human)) was 95%, the residual activity (ULK2 (human)) was 88.8% and the residual activity (VRK1 (human)) was 96.3%.

For Clc1ccc(Nc2nnc(Cc3ccncc3)c3ccccc23)cc1, the residual activity (ACVR1 (human)) was 96.1%, the residual activity (AKT3 (human)) was 89.9% and the residual activity (CDK3 CCNE1 (human)) was 92.7%. The residual activity (CHUK (human)) was 104%, the residual activity (CLK1 (human)) was 110% and the residual activity (CLK2 (human)) was 87.6%. The residual activity (CLK3 (human)) was 105%, the residual activity (CSNK1G1 (human)) was 103% and the residual activity (DYRK2 (human)) was 103%. For the same compound, the residual activity (EPHB1 (human)) was 107%, the residual activity (EPHB4 (human)) was 85.1% and the residual activity (ERBB2 (human)) was 101%. It also gave a residual activity (HCK (human)) of 89.5%, a residual activity (INSRR (human)) of 93.5% and a residual activity [1] of 107%. The residual activity (JAK2 JH1 JH2 (human)) was 106%, the residual activity (LIMK1 (human)) was 98.9% and the residual activity (LYN (human)) was 110% and 91.8%. The residual activity (MAP3K10 (human)) was 110%, the residual activity (MAP3K5 (human)) was 101% and the residual activity (MAP4K5 (human)) was 101%. It also gave a residual activity (MAPK8 (human)) of 98.2%, a residual activity (MARK3 (human)) of 102% and a residual activity (MLTK (human)) of 90.3%. It also gave a residual activity (NEK2 (human)) of 101%, a residual activity (NEK6 (human)) of 93.3% and a residual activity (NTRK3 (human)) of 92.7%. It also gave a residual activity (PAK3 (human)) of 107%, a residual activity (PAK4 (human)) of 95.8% and a residual activity (PHKG1 (human)) of 94.2%. The residual activity (PLK3 (human)) was 100%, the residual activity (PRKG1 (human)) was 94.1% and 97.2% and the residual activity (PTK2B (human)) was 102%. It also gave a residual activity (RET (human)) of 89.1%, a residual activity (RPS6KA5 KD2 (human)) of 85.5% and a residual activity (RPS6KA6 KD1 KD2 (human)) of 99.7%. For the same compound, the residual activity (TAOK1 (human)) was 98.7%, the residual activity (TEC (human)) was 137% and the residual activity (TGFBR1 (human)) was 96.8%. For the same compound, the residual activity (ULK1 (human)) was 107%, the residual activity (ULK2 (human)) was 99.9% and the residual activity (VRK1 (human)) was 109%.

CSc1nc(-c2ccc(F)cc2)c(-c2ccnc(NC(C)c3ccccc3)c2)[nH]1 (stereo unspecified) gave a residual activity (ACVR1 (human)) of 89.3%, a residual activity (AKT3 (human)) of 91.5% and a residual activity (CDK3 CCNE1 (human)) of 85.3%. It also gave a residual activity (CHUK (human)) of 98.4%, a residual activity (CLK1 (human)) of 96.8% and a residual activity (CLK2 (human)) of 102%. It also gave a residual activity (CLK3 (human)) of 85.4%, a residual activity (CSNK1G1 (human)) of 67.2% and a residual activity (DYRK2 (human)) of 96.1%. For the same compound, the residual activity (EPHB1 (human)) was 96.4%, the residual activity (EPHB4 (human)) was 99.9% and the residual activity (ERBB2 (human)) was 99.2%. The residual activity (HCK (human)) was 83.5%, the residual activity (INSRR (human)) was 98.9% and the residual activity [1] was 104%. For the same compound, the residual activity (JAK2 JH1 JH2 (human)) was 102%, the residual activity (LIMK1 (human)) was 103% and the residual activity (LYN (human)) was 89.4% and 98.5%. For the same compound, the residual activity (MAP3K10 (human)) was 90.6%, the residual activity (MAP3K5 (human)) was 106% and the residual activity (MAP4K5 (human)) was 85.6%. The residual activity (MAPK8 (human)) was 86.3%, the residual activity (MARK3 (human)) was 100% and the residual activity (MLTK (human)) was 85.7%. It also gave a residual activity (NEK2 (human)) of 89.9%, a residual activity (NEK6 (human)) of 106% and a residual activity (NTRK3 (human)) of 93.6%. The residual activity (PAK3 (human)) was 94.5%, the residual activity (PAK4 (human)) was 96.4% and the residual activity (PHKG1 (human)) was 91.8%. For the same compound, the residual activity (PLK3 (human)) was 99.7%, the residual activity (PRKG1 (human)) was 105% and the residual activity (PTK2B (human)) was 100%. It also gave a residual activity (RET (human)) of 101%, a residual activity (RPS6KA5 KD2 (human)) of 97.3% and a residual activity (RPS6KA6 KD1 KD2 (human)) of 93.1%. For the same compound, the residual activity (TAOK1 (human)) was 79.9%, the residual activity (TEC (human)) was 120% and the residual activity (TGFBR1 (human)) was 93.3%. It also gave a residual activity (ULK1 (human)) of 110%, a residual activity (ULK2 (human)) of 94.1% and a residual activity (VRK1 (human)) of 94.1%.

Source: the kinase profiling compilation of Christmann-Franck et al. (2016)
